Experiments:
Format in all cases: physicochemical
[1] = Dynamic moisture sorption (DMS) assessment; conditions: for solid form (PXRD) after moisture sorption-desorption: PXRD before and after the DMS experiment; for hygroscopicity: from DMS profile, Form 1 per European Pharmacopoeia Technical Guide classification; for hysteresis between sorption and desorption: two cycles of water sorption and desorption
Protocol: In one embodiment, the crystalline neutral monohydrate Form 1 is characterized by the DMS profile in FIG. 4. Samples of Form 1 were subjected to isothermal moisture sorption analysis at 25° C. […] The step-like profile at 40-60% RH may indicate capillary condensation. At 90% RH, the total moisture uptake was ˜0.5%.
In one embodiment, the crystalline neutral Form 2 is characterized by the DMS profile in FIG. 11. Samples of Form 2 were subjected to isothermal moisture sorption analysis at 25° C. With increasing relative humidity, the amount of water adsorbed by the solid increased gradually up to 75% RH and steeply between 75%-90% RH […].
In one embodiment, the crystalline neutral anhydrous Form 3 is characterized by the DMS profile in FIG. 29. The DMS thermogram of Form 3 is similar to that of Form 2 (FIG. 11). […] The sample, however, loses the adsorbed water during desorption segment and returns to an anhydrous state. Overlay of the PXRD patterns of the sample before and after it was subjected the moisture sorption-desorption experiment is shown in FIG. 30. […] Form 3, like Form 2, is hygroscopic.
In one embodiment, the crystalline neutral anhydrous Form 4 is characterized by the DMS profile in FIG. 37. […] Form-4 is non-hygroscopic. […] Form 4, which is obtained from the monohydrate Form 1, is non-hygroscopic, whereas Form 3, which is obtained from anhydrous Form 2, is hygroscopic. […] Overlay of the PXRD patterns of the sample before and after it was subjected the moisture sorption-desorption experiment is shown in FIG. 30.
Moisture sorption and desorption data on the crystalline compounds were collected on a VTI SGA-100 Vapor Sorption Analyzer. Sorption and desorption data were collected over a range of 5% to 90% relative humidity (RH) at 5% RH intervals. Equilibrium criteria used for analysis were less than 0.01% weight change in 5 minutes, with a maximum equilibration time of three hours if the weight criterion was not met. Samples were subjected to initial drying or desorption steps to 5% RH followed by the sorption-desorption cycle. Data were collected at a time interval of two minutes or 0.01% change in weight.

[2] = Retention of lattice water under ambient conditions and under high vacuum
[3] = Heat induced decomposition by DSC and TGA; conditions: 10° C. per minute, nitrogen purge
Protocol: (§1) The crystalline compounds were subjected to temperature scan using a TA Instruments Q100 differential scanning calorimeter equipped with a refrigerated cooling system. Samples were loaded into aluminum pans with crimped lids. In most cases, the samples were heated to 250° C. at a rate of 10° C. per minute under a purge of nitrogen gas. The data acquisition was controlled by Thermal Advantage software Release 5.1.2 and the data were analyzed with Universal Analysis 2000 software (version 4.7A).
as §1, with “Q500 thermal gravimetric analyzer.” for “Q100 differential scanning calorimeter equipped with a refrigerated cooling system.”, “platinum” for “aluminum”, “and” for “with crimped lids. In most cases, the samples were”

[4] = Exposure of Form 2 to 84% relative humidity, analysis by PXRD; conditions: 84% RH for seven days
Description: In one experiment, a sample of Form 2 was exposed to 84% RH for seven days. […] This experiment established that Form 2 is metastable to the monohydrate Form 1 in high relative humidities (>75% RH). Accordingly, in another embodiment, the crystalline neutral monohydrate Form 1 can be prepared by (a′) exposing the crystalline neutral Form 2 to high humidity; and in one embodiment exposing Form 2 to about >75% relative humidity, typically for about 5-7 days.

[5] = Slurry of Form 2 in water, analysis by PXRD; conditions: slurried in water (e.g., deionized water) for five days
Description: This experiment established that Form 2 is metastable to the monohydrate Form 1 in solutions containing water. Thus, in yet another embodiment, the crystalline neutral monohydrate Form 1 can be prepared by (a″) reslurrying the crystalline neutral Form 2 in water or an aqueous solution; (b″) heating then cooling the resulting slurry; (c″) optionally stirring or sonicating to complete dissolution; and allowing solids to form and isolating the solids to yield the crystalline neutral monohydrate Form 1. […] Step (a″) is typically conducted by first treating Form 2 with methanol, and subsequently adding water as an anti-solvent to form a slurry. Step (b″) generally involves heating the slurry to a temperature within the range of about 55-75° C., and in one embodiment to about 60° C. The cooling in step (b″) is generally to about room temperature.

| hygroscopicity [1] | total moisture uptake ([1]; isothermal moisture sorption at 25° C., at 90% RH) [%] | hysteresis between sorption and desorption [1] | loss of lattice water ([2]; exposed to ambient conditions for more than a month) | loss of lattice water ([2]; placed in high vacuum for more than 24 hours) | heat induced decomposition temperature [3] [°C] | total quantity of water taken up in the DMS experiment ([1]; DMS, 25° C.) | solid form after exposure to high humidity [4] | solid form after slurrying in water [5] | water taken up between 75% RH and 90% RH ([1]; DMS, between 75% RH and 90% RH) | water taken up when exposed up to 90% RH ([1]; DMS, up to 90% RH) | SMILES | solid form (PXRD) after moisture sorption-desorption [1] |
| --- | --- | --- | --- | --- | --- | --- | --- | --- | --- | --- | --- | --- |
| slightly hygroscopic | ~0.5 | did not show hysteresis | did not lose lattice water | did not lose lattice water | > 175 |  |  |  |  |  | CC(C)OC(=O)[C@H](O)CN(Cc1ccc(-c2cccc(Cl)c2)cc1)NC(=O)c1cc(O)no1 [Form 1, (R)-3-[N-(3′-chlorobiphenyl-4-ylmethyl)-N′-(3-hydroxyisoxazole-5-carbonyl)hydrazino]-2-hydroxypropionic acid isopropyl ester] | did not show any change in their PXRD pattern |
| hygroscopic |  | showed distinct hysteresis |  |  | > 175 | 3.5-3.6% | converts to Form 1 at high humidities | PXRD pattern consistent with Form 1 |  |  | CC(C)OC(=O)[C@H](O)CN(Cc1ccc(-c2cccc(Cl)c2)cc1)NC(=O)c1cc(O)no1 [Form 2, (R)-3-[N-(3′-chlorobiphenyl-4-ylmethyl)-N′-(3-hydroxyisoxazole-5-carbonyl)hydrazino]-2-hydroxypropionic acid isopropyl ester] | showed a PXRD pattern that matched with the starting material |
| hygroscopic |  |  |  |  |  |  |  |  | about 3.5% |  | CC(C)OC(=O)[C@H](O)CN(Cc1ccc(-c2cccc(Cl)c2)cc1)NC(=O)c1cc(O)no1 [Form 3, (R)-3-[N-(3′-chlorobiphenyl-4-ylmethyl)-N′-(3-hydroxyisoxazole-5-carbonyl)hydrazino]-2-hydroxypropionic acid isopropyl ester] | returns to the same solid form after moisture sorption and desorption |
| non-hygroscopic |  | no hysteresis |  |  |  |  |  |  |  | less than 0.1 % by weight | CC(C)OC(=O)[C@H](O)CN(Cc1ccc(-c2cccc(Cl)c2)cc1)NC(=O)c1cc(O)no1 [Form 4, (R)-3-[N-(3′-chlorobiphenyl-4-ylmethyl)-N′-(3-hydroxyisoxazole-5-carbonyl)hydrazino]-2-hydroxypropionic acid isopropyl ester] | retained its solid-state structure |

— patent publication US9271965B2, “Crystalline forms of (R)-3-[N-(3'-chlorobiphenyl-4-ylmethyl)-N'-(3-hydroxyisoxazole-5-carbonyl)hydrazino]-2-hydroxyproprionic acid isopropyl ester” (Theravance Biopharma R&D IP, LLC, priority 2012, dated 2016)
